# Laboratory results as given in US12054660B2, “Compound, composition, cured substance, optically anisotropic body, optical element, and light guide element” (FUJIFILM Corporation, priority 2021, dated 2024).
# Columns and labels:
# Assay type in all cases: physicochemical
# [1] = Evaluation of durability (moisture-heat resistance test) of optically anisotropic layer; conditions: rate of change in Re of layer (25 parts compound/75 parts L-1) after 136 hours at 100° C., 95% RH
# Protocol: (§1) As shown below, the durability of the optically anisotropic layer produced using the composition containing each of the compounds A-1 and A-3 to A-20, and the compounds RA-1 and RA-2 was evaluated.
# (§2) A coating composition having the following composition was prepared and applied by spin coating onto a rubbing-treated glass attached with an alignment film.
# (§3) The polymerizable liquid crystal compound L-1 is a mixture obtained by mixing at a ratio of the following L-1-1/L-1-2/L-1-3=84/14/2 (in terms of mass ratio).
# (§4) Re is an in-plane retardation. Rate of change in Re (%)=[100×{|(Re after test)−(Re before test)|}/(Re before test)]
# (§5) Re was measured with Axoscan manufactured by Axometrics, Inc. at a wavelength of 550 nm, and the measurement temperature was set to room temperature.
# The produced optically anisotropic layer was allowed to be left for 136 hours at 100° C. and a relative humidity of 95% RH, whereby a moisture-heat resistance test was carried out. The rate of change in Re before and after the durability test was evaluated, the durability in a case where the rate of change in Re was less than 10% was evaluated as A, and the durability in a case where the rate of change in Re was 10% or more was evaluated as B. The smaller the rate of change in Re, the more excellent the durability.
# [2] = Evaluation of light resistance of optically anisotropic layer; conditions: rate of change in Re of layer (25 parts compound/75 parts L-1) after xenon irradiation 50 hours, 63° C., 50% RH, oxygen-blocking
# Protocol: as §1, §2, §3
# The produced optically anisotropic layers for light resistance/durability tests were irradiated with light using a Super Xenon Weather Meter SX75 manufactured by Suga Test Instruments Co., Ltd. Using KU-1000100 manufactured by King Seisakusho Co., Ltd. as an ultraviolet ray cut filter, irradiation with 5 million 1× of light was carried out for 50 hours under the oxygen-blocking conditions to carry out a light resistance test. The temperature of the specimen to be tested (the temperature inside the test device) was set to 63° C. The relative humidity in the test device was 50% RH.
# The Re of the optically anisotropic layer before and after the light resistance test was measured, the light resistance in a case where the rate of change in Re described below was less than 10% was evaluated as A, and the light resistance in a case where the rate of change in Re was 10% or more was evaluated as B. The smaller the rate of change in Re, the more excellent the light resistance.
# as §4, §5
# [3] = Measurement of Δn (refractive index anisotropy), wedge-shaped liquid crystal cell; conditions: 550 nm, 30° C. or lower limit temperature of nematic phase+0 to 10° C.; some extrapolated from 1/2 mixture with L-1-1
# Protocol: The Δn of each of the compounds of Examples and Comparative Examples (the compounds A-1, A-3 to A-20, and the compounds RA-1 and RA-2), which are the compounds to be measured, was measured by a method using a wedge-shaped liquid crystal cell described on page 202 in the Liquid crystal handbook (edited by the liquid crystal handbook editorial board, published by Maruzen Co., Ltd., 2000). An was defined as a measured value at a wavelength of 550 nm at 30° C. or the lower limit temperature of the nematic phase+0° C. to 10° C. In a case of a compound which is liable to crystallize or a compound having no liquid crystallinity, evaluation was carried out using a mixture thereof with the other liquid crystal compound, and Δn was estimated from the extrapolated value of the measured value thereof. The following L-1-1 was used as the other liquid crystal compound. As the above mixture, a mixture obtained by mixing at a ratio of the compound to be measured/the L-1-1=1/2 (in terms of mass ratio) was used.
# A case where Δn was 0.35 or more was evaluated as A, a case where Δn was 0.32 or more and less than 0.35 was evaluated as B, a case where Δn was 0.30 or more and less than 0.32 was evaluated as C, and a case where Δn was less than 0.30 was evaluated as D. The results are shown in Table 1.
# [4] = Evaluation of liquid crystallinity (hot stage, polarization microscope); parameters: key: A case of having liquid crystallinity was evaluated as A; a case of having no liquid crystallinity was evaluated as B; conditions: heated on a hot stage
# Excerpt: As a specific observation method, optical anisotropy and fluidity derived from the liquid crystal phase can be checked by carrying out an observation under a polarization microscope while heating or lowering the temperature of the compound with a hot stage or the like.
# The respective compounds of Examples and Comparative Examples (the compounds A-1, A-3 to A-20, and the compounds RA-1 and RA-2) were heated on a hot stage and observed with a polarization microscope, and the phase transition temperature was measured to evaluate the presence or absence of liquid crystallinity. A case of having liquid crystallinity was evaluated as A, and a case of having no liquid crystallinity was evaluated as B. The results are shown in Table 1.
# [5] = Evaluation of solubility in methyl ethyl ketone; conditions: precipitation concentration in methyl ethyl ketone at room temperature (25° C.)
# Protocol: The solubility of each of the compounds of Examples and Comparative Examples (the compounds A-1, A-3 to A-20, and the compounds RA-1 and RA-2) in methyl ethyl ketone was evaluated. A solution in which the compound was ultrasonically dissolved or dissolved by heating was produced.
SMILES,Durability [1],Light resistance [2],Δn [3],Liquid crystallinity [4],Solubility [5]
"CC(=O)OCCCCCCCCCCOc1ccc(C#Cc2ccc(OC(=O)c3ccc(C#Cc4ccc(OCCCCCCCCCCOC(C)=O)c(F)c4)cc3)cc2)cc1F [RA-1, reference compound]",A (the durability in a case where the rate of change in Re was less than 10% was evaluated as A),B (the light resistance in a case where the rate of change in Re was 10% or more was evaluated as B),D (a case where Δn was less than 0.30 was evaluated as D),A,B (the solubility in a case where the precipitation concentration was less than 10% by mass was evaluated as B)
"C=CC(=O)OCCCCSc1ccc(C#Cc2ccc(NC(=O)c3ccc(SCCCCOC(=O)C=C)cc3)c(C(F)(F)F)c2)cc1 [RA-2, reference compound]",A (the durability in a case where the rate of change in Re was less than 10% was evaluated as A),B (the light resistance in a case where the rate of change in Re was 10% or more was evaluated as B),C (a case where Δn was 0.30 or more and less than 0.32 was evaluated as C),A,B (the solubility in a case where the precipitation concentration was less than 10% by mass was evaluated as B)
